In brackets after ≈: the same amount, converted by molar mass.
Assays:
[1] = test system: Mycobacterium tuberculosis; assay: Antimycobacterial activity against Mycobacterium tuberculosis H37Ra; format: functional
Vero = assay: Cytotoxicity against african green monkey Vero cells; format: cell-based; conditions: Chlorocebus sabaeus
[2] = Selectivity index, ratio of IC50 for african green monkey Vero cells to MIC for Mycobacterium tuberculosis H37Ra; format: functional
[3] = test system: Mycobacterium tuberculosis; assay: Antimycobacterial activity against Mycobacterium tuberculosis H37Rv under aerobic condition; format: functional
[4] = test system: Mycobacterium tuberculosis; assay: Antimycobacterial activity against Mycobacterium tuberculosis H37Rv under anaerobic condition; format: functional
[5] = test system: Mycobacterium tuberculosis; assay: Antimycobacterial activity against Mycobacterium tuberculosis H37Rv ATCC 27294; format: functional
[6] = test system: Mycobacterium tuberculosis; assay: Antimycobacterial activity against Mycobacterium tuberculosis isolate CIBIN/UMF 15:19; format: functional
[7] = test system: Mycobacterium tuberculosis; assay: Antimycobacterial activity against Mycobacterium tuberculosis H37Rv isolate WC 64/02; format: functional
[8] = test system: Mycobacterium tuberculosis; assay: Antimycobacterial activity against Mycobacterium tuberculosis H37Rv isolate WC 51/02; format: functional
[9] = Selectivity index, ratio of CC50 for lymphocytes to MIC for Mycobacterium tuberculosis H37Rv isolate WC 64/02; format: functional
[10] = Selectivity index, ratio of CC50 for lymphocytes to MIC for Mycobacterium tuberculosis H37Rv isolate WC 51/02; format: functional
[11] = test system: Mycobacterium tuberculosis; assay: Antimycobacterial activity against Mycobacterium tuberculosis 90-221387; format: functional
[12] = test system: Mycobacterium tuberculosis; assay: Antimycobacterial activity against Mycobacterium tuberculosis H37Rv; format: functional; conditions: Mycobacterium tuberculosis, H37Rv; read-out: MIC
[13] = Selectivity index, ratio of IC50 for african green monkey Vero cells to MIC for Mycobacterium tuberculosis H37Rv; format: functional
[14] = test system: Mycobacterium tuberculosis; assay: Antimycobacterial activity against Mycobacterium tuberculosis Erdman by microplate alamar blue assay; format: functional
[15] = test system: Mycobacterium tuberculosis; assay: Antimycobacterial activity against Mycobacterium tuberculosis H242; format: functional
[16] = test system: Mycobacterium tuberculosis; assay: Antimycobacterial activity against Mycobacterium tuberculosis at 128 ug/mL; format: functional; conditions: read-out: GI
[17] = Inhibition of Mycobacterium tuberculosis RNA polymerase

Structure (SMILES): Cc1cc(O)cc2c1C[C@@H]1C[C@@H](O)[C@]3(C)Oc4cc(O)cc(C)c4C[C@@H]3CC(C)(C)/C=C/C[C@@]1(C)C2 [RAMIFERIN]
- MIC [1]: 12.7 µM
- IC50 (Vero): 9.7 µM
- Selectivity Index [2]: 0.7

Structure (SMILES): CCCC/C=C/C#CC#CCCCCCCCC(=O)O [EXOCARPIC ACID]
- MIC [1]: 20 µg/mL
- MIC [3]: 20 µg/mL (≈ 72.9 µM)
- MIC [4]: 87 µg/mL (≈ 317 µM)

Structure (SMILES): CC1COc2c(N3CCN(C)CC3)c(F)cc3c(=O)c(C(=O)O)cn1c23 (stereo not given) [OFLOXACIN]
- MIC [5]: 0.125 µg/mL (≈ 0.346 µM)
- MIC [6]: 0.125 µg/mL (≈ 0.346 µM)

Structure (SMILES): Cc1cc(O)c2c(c1)C(=O)C=CC2=O [RAMENTACEONE]
- MIC [7]: 0.5 µg/mL (≈ 2.66 µM)
- MIC [8]: 0.5 µg/mL (≈ 2.66 µM)
- Selectivity Index [9]: <8
- Selectivity Index [10]: <8

Structure (SMILES): COc1cc([C@H]2O[C@@H](c3cc(OC)c4c(c3)OCO4)[C@@H](C)[C@@H]2C)cc(OC)c1OC [BEILSCHMIN A]
- MIC [11]: 2.5 µg/mL (≈ 6 µM)

Structure (SMILES): O=C1c2cccnc2-c2nccc3c2c1nc1ccccc13 [ASCIDIDEMIN]
- MIC [12]: 0.35 µM
- IC50 (Vero): 0.14 µM
- Selectivity Index [13]: <1

Structure (SMILES): C=CC(O)C#CC#CC(O)/C=C\CCCCCCCCOC(C)=O (stereo not given)
- MIC [12]: 25.3 µg/mL
- MIC [14]: 1.4 µg/mL (≈ 4.21 µM)

Structure (SMILES): CCCOC(=O)[C@]12CC[C@@]3(C)C[C@H]4O[C@@]4(C)[C@H]4O[C@H]4[C@H]3[C@@H]1CC[C@@H]2C(C)C
- MIC [5]: 6.25 µg/mL (≈ 16.6 µM)
- MIC [6]: 6.25 µg/mL (≈ 16.6 µM)

Structure (SMILES): CCCCCCCC/C=C\CCCCCCCCCCCCCCCC[C@@H](O)C(=O)N[C@@H](CO[C@@H]1O[C@H](CO)[C@H](O)[C@H](O)[C@H]1O)[C@H](O)[C@H](O)CCC/C=C\CCCCCCCCC
- MIC [12]: 40 µg/mL
- MIC [15]: 40 µg/mL (≈ 44.5 µM)

Structure (SMILES): C#C[C@@]12O[C@]1(C=O)[C@]1(C)CC[C@H]3C(C)(C)CCC[C@]3(C)[C@H]1CC2=O [ESCOBARINE A]
- MIC [5]: 25 µg/mL (≈ 76.1 µM)
- MIC [6]: 12.5 µg/mL (≈ 38.1 µM)

Structure (SMILES): C#C[C@@]12O[C@]1(CO)[C@]1(C)CC[C@H]3C(C)(C)CCC[C@]3(C)[C@H]1CC2=O [ESCOBARINE B]
- MIC [5]: 50 µg/mL (≈ 151 µM)
- MIC [6]: 50 µg/mL (≈ 151 µM)

Structure (SMILES): CC(C)[C@H]1CC[C@@H]2[C@]1(C)CC(=O)[C@@]1(C)CC[C@@](C)(O)[C@@H]3C[C@@]231 [AZORELLANONE]
- MIC [5]: 12.5 µg/mL (≈ 41.1 µM)
- MIC [6]: 12.5 µg/mL (≈ 41.1 µM)

Structure (SMILES): C=C(CC[C@@H](C)[C@H]1CC[C@H]2[C@@H]3C(C=O)[C@]4(O)C[C@@H](O)CC[C@]4(C)[C@H]3CC[C@]12C)C(C)C (stereo not given in full) [PARGUESTEROL B]
- MIC [12]: 11.2 µg/mL
- IC50 (Vero): 52 µg/mL
- Selectivity Index [13]: <7

Structure (SMILES): C=C(C)[C@@H]1CCC2=C[C@@H](OC2=O)C2=C(C)C[C@](O)(C2=O)[C@H](C)[C@@H](O)C1=O [CORALLOLIDE B]
- inhibition of growth at 128 µg/mL [16]: 95%

Structure (SMILES): CC(C)[C@@H](C)/C=C/[C@@H](C)[C@H]1CC[C@@H]2[C@]1(C)CC[C@H]1[C@]23C=C[C@]2(C[C@@H](O)CC[C@]12C)OO3 [ERGOSTEROL PEROXIDE]
- MIC [12]: 3.5 µM
- Selectivity Index [13]: >57

Structure (SMILES): COc1cc([C@H]2O[C@@H](c3cc(OC)c(OC)c(OC)c3)[C@@H](C)[C@@H]2C)cc(OC)c1OC [BEILSCHMIN B]
- MIC [11]: 7.5 µg/mL (≈ 17.3 µM)

Structure (SMILES): CCCCOC(=O)[C@]12CC[C@@]3(C)C[C@H]4O[C@@]4(C)[C@H]4O[C@H]4[C@H]3[C@@H]1CC[C@@H]2C(C)C
- MIC [5]: 6.25 µg/mL (≈ 16 µM)
- MIC [6]: 6.25 µg/mL (≈ 16 µM)

Structure (SMILES): C/C=C/C/C=C(\C)C(O)CC/C(C)=C/C=C(\C)C(=O)c1c(O)cc([C@H](C)CC/C=C/NC(=O)OC)oc1=O (stereo not given in full) [CORALLOPYRONIN A]
- IC50 [17]: 4 µM

Structure (SMILES): COc1ccc(C(=O)OC2=C(C(C)C)C(=O)C3=C(C2=O)[C@@]2(C)CCCC(C)(C)[C@@H]2[C@H](O)[C@H]3OC(C)=O)cc1
- MIC [12]: 3.12 µg/mL
- IC50 (Vero): 2.58 µg/mL

From ChEMBL document CHEMBL2203104, “Recent advances in antitubercular natural products” (Eur J Med Chem, 2012)
